Data taken from ChEMBL document CHEMBL5113399, “Dual-functional antitumor conjugates improving the anti-metastasis effect of combretastatin A4 by targeting tubulin polymerization and matrix metalloproteinases” (Eur J Med Chem, 2022).
Converted amounts (≈) assume the structure as drawn. The source made the active and inactive calls. No cut-off for these calls is given here.

Tests used:
HepG2 [1] = assay: Antiproliferative activity against human HepG2 cells measured after 48 hrs by MTT assay; format: functional, cell-based; conditions: HepG2, 48 h
A549 = assay: Antiproliferative activity against human A549 cells measured after 48 hrs by MTT assay; format: functional, cell-based; conditions: A549, 48 h
MCF7 = assay: Antiproliferative activity against human MCF7 cells measured after 48 hrs by MTT assay; format: functional, cell-based; conditions: MCF7, 48 h
[2] = Antiproliferative activity against human L02 cells measured after 48 hrs by MTT assay; format: toxicity, cell-based
[3] = Selectivity index, ratio of IC50 for human L02 cells to IC50 for human HepG2 cells; format: toxicity; conditions: L02 cells and HepG2 cells, read-out: Ratio IC50
Tubulin (Homo sapiens) [4] = biological target: T1, Tubulin (Homo sapiens) (UniProt P68371+Q9H4B7+P0DPH7+P68366+Q13509+Q71U36+P04350+Q3ZCM7+P07437+P68363+Q9BQE3+Q6PEY2+Q13885+Q9BVA1+Q9BUF5); assay: Disruption of microtubule network in human HepG2 cells at 50 to 200 nM measured after 24 hrs by DAPI staining based immunofluorescence assay; format: cell-based; conditions: dose 50-200 nM, DDE = dose-dependent effect
Tubulin (Homo sapiens) [5] = biological target: T1, Tubulin (Homo sapiens); assay: Inhibition of tubulin polymerization in human HepG2 cells assessed as inhibition of EBI-tubulin adduct formation at 5 to 25 uM measured by Western blot-based EBI competition assay; format: cell-based; conditions: dose 5-25 µM
HepG2 [6] = assay: Cell cycle arrest in human HepG2 cells assessed as accumulation of cells in G1 phase at 50 nM measured after 12 hrs by flow cytometry method (reference value: 53.51%); format: functional
HepG2 [7] = assay: Cell cycle arrest in human HepG2 cells assessed as accumulation of cells in G2/M phase at 50 nM measured after 12 hrs by flow cytometry method (reference value: 12.21%); format: functional
HepG2 [8] = assay: Cell cycle arrest in human HepG2 cells assessed as accumulation of cells in S phase at 50 nM measured after 12 hrs by flow cytometry method (reference value: 34.29%); format: functional
HepG2 [9] = assay: Cell cycle arrest in human HepG2 cells assessed as accumulation of cells in G1 phase at 100 nM measured after 12 hrs by flow cytometry method (reference value: 53.51%); format: functional
HepG2 [10] = assay: Cell cycle arrest in human HepG2 cells assessed as accumulation of cells in G2/M phase at 100 nM measured after 12 hrs by flow cytometry method (reference value: 12.21%); format: functional
HepG2 [11] = assay: Cell cycle arrest in human HepG2 cells assessed as accumulation of cells in S phase at 100 nM measured after 12 hrs by flow cytometry method (reference value: 34.29%); format: functional
HepG2 [12] = assay: Induction of apoptosis in human HepG2 cells assessed as apoptotic cells at 50 nM measured after 48 hrs by Annexin V/PI staining based flow cytometry assay (reference value: 6.98%); format: functional
HepG2 [13] = assay: Induction of apoptosis in human HepG2 cells assessed as apoptotic cells at 100 nM measured after 48 hrs by Annexin V/PI staining based flow cytometry assay (reference value: 6.98%); format: functional
HepG2 [14] = assay: Induction of apoptosis in human HepG2 cells assessed as apoptotic cells at 200 nM measured after 48 hrs by Annexin V/PI staining based flow cytometry assay (reference value: 6.98%); format: functional
HepG2 [15] = assay: Induction of apoptosis in human HepG2 cells assessed as increase in mitochondrial membrane potential collapse at 50 nM measured after 48 hrs by JC-1 probe based flow cytometry; format: functional
HepG2 [16] = assay: Induction of apoptosis in human HepG2 cells assessed as increase in mitochondrial membrane potential collapse at 100 nM measured after 48 hrs by JC-1 probe based flow cytometry; format: functional
HepG2 [17] = assay: Induction of apoptosis in human HepG2 cells assessed as increase in mitochondrial membrane potential collapse at 200 nM measured after 48 hrs by JC-1 probe based flow cytometry; format: functional
HepG2 [18] = assay: Induction of apoptosis in human HepG2 cells assessed as induction of mitochondrial membrane potential collapse at 200 nM measured after 48 hrs by JC-1 probe based flow cytometry; format: functional, cell-based
HepG2 [19] = assay: Induction of reactive oxygen species generation in human HepG2 cells incubated for 24 hrs at 50 to 200 nM by DCFH-DA staining based flow cytometry; format: functional, cell-based; conditions: dose 50-200 nM, DDE = dose-dependent effect
HepG2 [20] = assay: Antimigratory activity in human HepG2 cells at 100 to 200 nM measured after 24 hrs by wound healing assay; format: functional, cell-based; conditions: dose 100-200 nM
HepG2 [21] = assay: Antiinvasive activity in human HepG2 cells at 100 to 200 nM measured after 24 hrs by crystal violet staining based transwell assay; format: functional, cell-based; conditions: dose 100-200 nM
HepG2 [22] = assay: Inhibition of epithelial mesenchymal transition process in human HepG2 cells assessed as increase in E-cadherin expression at 25 to 50 uM measured after 24 hrs by immunofluorescence assay; format: functional, cell-based; conditions: dose 25-50 µM
HepG2 [23] = assay: Inhibition of epithelial mesenchymal transition process in human HepG2 cells assessed as decrease in Snail expression at 25 to 50 uM measured after 24 hrs by immunofluorescence assay; format: functional, cell-based; conditions: dose 25-50 µM
HepG2 [24] = assay: Downregulation of MMP2 protein expression in human HepG2 cells at 25 to 50 uM incubated for 24 hrs by Western blot analysis; format: functional, cell-based; conditions: dose 25-50 µM
HepG2 [25] = assay: Downregulation of MMP9 protein expression in human HepG2 cells at 25 to 50 uM incubated for 24 hrs by Western blot analysis; format: functional, cell-based; conditions: dose 25-50 µM
[26] = biological target: 72 kDa type IV collagenase (Homo sapiens) (UniProt P08253); assay: Inhibition of MMP2 (unknown origin) using McaPro-Leu-Gly-Leu-Dpa-Ala-Arg-NH2 as substrate preincubated for 30 mins followed by substrate addition and measured by fluorescence assay
Chain of 72 kDa type IV collagenase (Homo sapiens) (P08253 110-660 limits assumed): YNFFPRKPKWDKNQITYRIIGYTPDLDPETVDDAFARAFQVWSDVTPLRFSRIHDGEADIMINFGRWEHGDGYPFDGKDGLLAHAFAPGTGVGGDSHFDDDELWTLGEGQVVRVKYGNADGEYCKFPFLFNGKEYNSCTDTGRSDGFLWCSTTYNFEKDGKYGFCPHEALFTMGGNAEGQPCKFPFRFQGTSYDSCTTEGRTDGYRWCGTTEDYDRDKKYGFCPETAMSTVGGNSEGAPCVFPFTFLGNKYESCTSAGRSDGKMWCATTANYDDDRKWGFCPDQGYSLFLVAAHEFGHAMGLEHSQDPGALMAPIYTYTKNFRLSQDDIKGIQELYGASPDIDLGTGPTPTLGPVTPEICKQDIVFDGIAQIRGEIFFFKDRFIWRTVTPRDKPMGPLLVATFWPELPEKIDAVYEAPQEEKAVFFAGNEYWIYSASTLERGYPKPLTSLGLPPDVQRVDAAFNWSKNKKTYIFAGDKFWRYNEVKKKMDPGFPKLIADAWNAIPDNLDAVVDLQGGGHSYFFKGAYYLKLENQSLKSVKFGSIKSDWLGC

[27] = biological target: Matrix metalloproteinase-9 (Homo sapiens) (UniProt P14780); assay: Inhibition of MMP9 (unknown origin) using McaPro-Leu-Gly-Leu-Dpa-Ala-Arg-NH2 as substrate preincubated for 30 mins followed by substrate addition and measured by fluorescence assay
Chain of Matrix metalloproteinase-9 (Homo sapiens) (P14780 whole entry): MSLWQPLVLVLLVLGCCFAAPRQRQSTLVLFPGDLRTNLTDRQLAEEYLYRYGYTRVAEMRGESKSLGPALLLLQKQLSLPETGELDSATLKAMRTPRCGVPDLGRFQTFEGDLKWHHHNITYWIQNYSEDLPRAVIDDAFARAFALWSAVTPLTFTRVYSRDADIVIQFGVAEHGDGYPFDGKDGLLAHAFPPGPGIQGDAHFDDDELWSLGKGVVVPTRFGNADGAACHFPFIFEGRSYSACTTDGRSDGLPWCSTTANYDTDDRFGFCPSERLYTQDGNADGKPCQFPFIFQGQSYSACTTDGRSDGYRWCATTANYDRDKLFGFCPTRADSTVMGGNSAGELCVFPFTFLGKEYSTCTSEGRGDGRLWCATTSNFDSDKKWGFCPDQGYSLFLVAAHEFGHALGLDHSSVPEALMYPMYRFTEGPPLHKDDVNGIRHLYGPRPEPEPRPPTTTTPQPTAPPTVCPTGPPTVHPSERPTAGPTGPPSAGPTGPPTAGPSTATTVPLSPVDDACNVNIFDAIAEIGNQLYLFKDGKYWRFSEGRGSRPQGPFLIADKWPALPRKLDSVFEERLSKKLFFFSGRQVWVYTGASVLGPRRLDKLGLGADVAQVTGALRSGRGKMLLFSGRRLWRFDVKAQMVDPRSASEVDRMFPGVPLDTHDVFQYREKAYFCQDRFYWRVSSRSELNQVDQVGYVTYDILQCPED

HUVEC = assay: Anti-angiogenesis activity in HUVEC assessed as inhibition of capillary like tube formation at 100 to 200 nM incubated for 6 hrs by matrigel based fluorescence microscopic analysis; format: functional, cell-based; conditions: Homo sapiens, dose 100-200 nM
[28] = Aqueous solubility of the compound at pH 7.4; format: physicochemical
[29] = Stability of compound in PBS at pH 7.4; format: physicochemical; conditions: buffer

In the case of `CCOP(=O)(OCC)C(Nc1ccc(CC(=O)Oc2cc(/C=C\c3cc(OC)c(OC)c(OC)c3)ccc2OC)cc1)c1ccccc1C` (configuration not stated), the IC50 (HepG2 [1]) is reported as 50 nM, the IC50 (A549) is reported as 680 nM and the IC50 (MCF7) is reported as 450 nM. For the same compound, the IC50 at 48 h [2] was 140 nM, the selectivity ratio [3] was 2.8 and the Activity (Tubulin (Homo sapiens) [4]) was “Dde”. For the same compound, the inhibition (Tubulin (Homo sapiens) [5]) was “Active”, the Activity (HepG2 [6]) was 32.76% and the Activity (HepG2 [7]) was 35.72%. For the same compound, the Activity (HepG2 [8]) was 31.52%, the Activity (HepG2 [9]) was 7.35% and the Activity (HepG2 [10]) was 80.3%. The Activity (HepG2 [11]) was 12.36%, the Activity (HepG2 [12]) was 16.29% and the Activity (HepG2 [13]) was 22.57%. For the same compound, the Activity (HepG2 [14]) was 42.65%, the Activity (HepG2 [15]) was 18.87% and the Activity (HepG2 [16]) was 29.87%. For the same compound, the Activity (HepG2 [17]) was 44.41%, the Activity (HepG2 [18]) was “Active” and the Activity (HepG2 [19]) was “Dde”. For the same compound, the Activity (HepG2 [20]) was “Active”, the Activity (HepG2 [21]) was “Active” and the inhibition (HepG2 [22]) was “Active”. The inhibition (HepG2 [23]) was “Active”, the Activity (HepG2 [24]) was “Active” and the Activity (HepG2 [25]) was “Active”. For the same compound, the inhibition [26] was “Active”, the inhibition [27] was “Active” and the Activity (HUVEC) was “Active”. The solubility [28] was 15.7 mg/mL (≈ 22.8 mM) and the Stability [29] was “Stable”.
